Test results as given in patent US12281119B2, “Imidazo[2,1-f][1,2,4]triazin-4-amine derivatives as TLR7 agonist” (BEIGENE, LTD., priority 2019, dated 2025).
pEC50: −log10 of the molar value.

Tests used:
[1] = target: T1, human TLR 8 protein (Homo sapiens, UniProt Q9NR97); experiment: TLR8 stimulation determined using HEK-Blue Detection; assay type: cell-based; details: HEK-Blue hTLR8 cells, 16 hr, relative to Resiquimod or Motolimod maximum
T1 construct: expressed in transfected cells; host or cells: HEK293 (HEK-Blue hTLR8)
T1 sequence (Q9NR97 27-1041): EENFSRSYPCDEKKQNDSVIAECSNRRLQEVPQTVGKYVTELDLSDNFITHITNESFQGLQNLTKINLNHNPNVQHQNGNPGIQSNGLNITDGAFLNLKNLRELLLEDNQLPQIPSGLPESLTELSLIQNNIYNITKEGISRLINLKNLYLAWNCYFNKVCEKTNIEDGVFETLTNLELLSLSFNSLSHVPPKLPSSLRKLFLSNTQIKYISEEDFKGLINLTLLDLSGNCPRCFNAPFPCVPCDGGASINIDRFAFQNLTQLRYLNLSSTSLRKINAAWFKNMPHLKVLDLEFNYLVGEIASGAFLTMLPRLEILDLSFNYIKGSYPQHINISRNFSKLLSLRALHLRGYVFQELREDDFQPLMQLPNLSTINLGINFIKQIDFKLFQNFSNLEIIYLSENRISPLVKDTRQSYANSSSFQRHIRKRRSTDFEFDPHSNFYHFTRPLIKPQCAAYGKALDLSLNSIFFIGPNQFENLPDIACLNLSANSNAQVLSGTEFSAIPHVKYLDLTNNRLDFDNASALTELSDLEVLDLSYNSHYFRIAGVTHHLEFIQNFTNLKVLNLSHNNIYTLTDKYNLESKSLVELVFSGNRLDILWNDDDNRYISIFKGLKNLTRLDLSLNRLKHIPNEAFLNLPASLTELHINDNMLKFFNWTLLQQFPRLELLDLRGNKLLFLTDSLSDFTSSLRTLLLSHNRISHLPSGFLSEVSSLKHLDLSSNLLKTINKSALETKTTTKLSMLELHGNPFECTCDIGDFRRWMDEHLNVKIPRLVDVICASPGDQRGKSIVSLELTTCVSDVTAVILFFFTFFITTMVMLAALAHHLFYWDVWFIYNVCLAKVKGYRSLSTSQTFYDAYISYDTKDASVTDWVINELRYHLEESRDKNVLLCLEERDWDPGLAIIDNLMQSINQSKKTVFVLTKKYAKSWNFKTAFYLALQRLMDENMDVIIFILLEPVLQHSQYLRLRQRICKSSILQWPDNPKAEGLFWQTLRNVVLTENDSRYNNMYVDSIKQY
Source text: TLR8 Stimulation Determined Using HEK-Blue Detection
This assay was designed for studying the stimulation of human TLR 8 protein in HEK-Blue hTLR8 tool cell line by monitoring the activation of NF-1B. HEK-Blue hTLR8 cells were obtained by co-transfection of the hTLR8 gene and an optimized secreted embryonic alkaline phosphatase (SEAP) reporter gene into HEK293 cells. The SEAP reporter gene was placed under the control of the IFN-β minimal promoter fused to five NF-κB and AP-1-binding sites. Stimulation with a TLR 8 ligand activates NF-κB and AP-1 which induce the expression of SEAP. Levels of SEAP can be easily determined with HEK-Blue Detection, a cell culture medium that allows for real-time detection of SEAP. HEK-Blue Detection contains all the nutrients necessary for cell growth and a specific SEAP color substrate. The hydrolysis of the substrate by SEAP produces a purple/blue color that can be measured with a spectrophotometer.
When growing to 50-80% confluency, HEK-Blue hTLR7/8 cells were plated into 96-well plate (costar 3599) at a density of 40000 cells/well. Then compounds were added with serial dilutions over 10 points with a 1 nM-10 uM final concentration range in 0.1% DMSO/HEK-Blue Detection. The plates were then incubated for 16 hr at 37° C. in 5% CO2. The optical density at 620-655 nm was read on BMG PHERAstar FSX instrument. The EC50 for each compound was determined by calculating the percentages of the maximum activation identified with Resiquimod or Motolimod.

[2] = target: T2, human TLR7 (Homo sapiens, UniProt Q9NYK1); experiment: TLR7 stimulation determined using HEK-Blue Detection; assay type: cell-based; design: expressed in transfected cells; host or cells: HEK293 (HEK-Blue hTLR7); details: HEK-Blue hTLR7 cells, HEK-Blue Detection (A77-A124), 16 hr, relative to Resiquimod maximum
T2 sequence (Q9NYK1 27-1049): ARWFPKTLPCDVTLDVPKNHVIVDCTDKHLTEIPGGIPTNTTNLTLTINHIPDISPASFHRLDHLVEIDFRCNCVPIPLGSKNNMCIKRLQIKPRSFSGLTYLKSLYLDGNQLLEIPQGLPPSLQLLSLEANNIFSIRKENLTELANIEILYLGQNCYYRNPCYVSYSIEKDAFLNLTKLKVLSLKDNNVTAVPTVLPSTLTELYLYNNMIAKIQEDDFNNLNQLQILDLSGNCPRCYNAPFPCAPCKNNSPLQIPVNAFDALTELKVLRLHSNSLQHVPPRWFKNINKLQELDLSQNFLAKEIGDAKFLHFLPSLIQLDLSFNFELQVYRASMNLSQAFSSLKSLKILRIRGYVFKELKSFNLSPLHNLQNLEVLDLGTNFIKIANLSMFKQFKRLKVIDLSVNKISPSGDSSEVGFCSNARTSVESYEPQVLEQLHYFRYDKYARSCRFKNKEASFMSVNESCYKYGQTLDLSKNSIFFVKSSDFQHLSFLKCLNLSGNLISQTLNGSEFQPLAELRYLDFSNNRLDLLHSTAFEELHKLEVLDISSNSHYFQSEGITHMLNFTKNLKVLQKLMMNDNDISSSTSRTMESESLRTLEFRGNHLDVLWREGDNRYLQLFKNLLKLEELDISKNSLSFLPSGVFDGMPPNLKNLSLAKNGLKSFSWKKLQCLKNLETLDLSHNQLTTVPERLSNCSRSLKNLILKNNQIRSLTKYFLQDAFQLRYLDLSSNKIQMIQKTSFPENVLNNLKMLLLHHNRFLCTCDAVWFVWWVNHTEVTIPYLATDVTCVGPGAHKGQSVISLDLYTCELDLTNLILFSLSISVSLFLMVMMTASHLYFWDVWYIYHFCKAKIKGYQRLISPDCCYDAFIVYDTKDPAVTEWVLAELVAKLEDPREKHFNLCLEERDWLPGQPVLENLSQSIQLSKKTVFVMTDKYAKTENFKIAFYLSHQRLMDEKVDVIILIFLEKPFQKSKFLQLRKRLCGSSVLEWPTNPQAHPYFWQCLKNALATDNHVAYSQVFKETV
Source text: TLR7 Stimulation Determined Using HEK-Blue Detection
This assay was designed for studying the stimulation of human TLR7 protein in HELK-Blue hTLR7 tool cell line by monitoring the activation of NF-κB. HEK-Blue hTLR7 cells were obtained by co-transfection of the hTLR7 gene and an optimized secreted embryonic alkaline phosphatase (SLAP) reporter gene into HEK293 cells. The SLAP reporter gene was placed under the control of the IFN-β minimal promoter fused to five NF-κB and AP-1-binding sites. Stimulation with a TLR7 ligand activates NF-κB and AP-1 which induce the expression of SLAP. Levels of SLAP can be easily determined with HEK-Blue Detection, a cell culture medium that allows for real-time detection of SLAP. HLK-Blue Detection contains all the nutrients necessary for cell growth and a specific SLAP color substrate. The hydrolysis of the substrate by SLAP produces a purple/blue color that can be measured with a spectrophotometer.
When growing to 50-80%0 confluency, HLK-Blue hTLR7 cells were plated into 96-well plate (costar 3599) at a density of 40000 cells/well. Then compounds were added with serial dilutions over 10 points with a 0.04 nM-10 μM final concentration range in 0.1% DMSO/BLK-Blue Detection. The plates were then incubated for 16 hr at 37° C. in […] and vortex for 30s before measurement. The optical density at 620-655 nm was read on BMG PHLRAstar FSX instrument. The EC50 for each compound was determined by calculating the percentages of the maximum activation identified with Resiquimod.

Structure (SMILES) | pEC50 [1] | pEC50 [2]
CCCC(CCO)Oc1nc(N)c2ncc(Cc3ccc(OCCNC)cc3Cl)n2n1 (single isomer, unassigned) [Compound A108, (R or S)-3-((4-amino-7-(2-chloro-4-(2-(methylamino)ethoxy)benzyl)imidazo[2,1-f][1,2,4]triazin-2-yl)oxy)hexan-1-ol] | 7.68 | 9.10
CCCC(CCO)Oc1nc(N)c2ncc(Cc3ccc(OC(C)CNC)nc3)n2n1 (single isomer, unassigned) [Compound A109, (3R or S)-3-((4-amino-7-((6-((1-(methylamino)propan-2-yl)oxy)pyridin-3-yl)methyl)imidazo [2,1-f][1,2,4]triazin-2-yl)oxy)hexan-1-ol] | 7.33 | 8.47
CCCC(CCO)Oc1nc(N)c2ncc(Cc3ccc(CCCNC)cc3)n2n1 (single isomer, unassigned) [Compound A110, (R or S)-3-((4-amino-7-(4-(3-(methylamino)propyl)benzyl)imidazo[2,1-f][1,2,4]triazin-2-yl)oxy)hexan-1-ol] | 7.19 | 8.40
CCCC(CCO)Oc1nc(N)c2ncc(Cc3ccc(OCCNC)c(F)c3F)n2n1 (single isomer, unassigned) [Compound A111, (R or S)-3-((4-amino-7-(2,3-difluoro-4-(2-(methylamino)ethoxy)benzyl)imidazo[2,1-f][1,2,4]triazin-2-yl)oxy)hexan-1-ol] | 7.33 | 8.72
CCCC(CCO)Oc1nc(N)c2ncc(Cc3cc(F)c(OCCNC)cc3F)n2n1 (single isomer, unassigned) [Compound A112, (R or S)-3-((4-amino-7-(2,5-difluoro-4-(2-(methylamino)ethoxy)benzyl)imidazo[2,1-f][1,2,4]triazin-2-yl)oxy)hexan-1-ol] | 8.05 | 9.03
CCCC(CCO)Oc1nc(N)c2ncc(Cc3cc(OCCNC)ccc3OC)n2n1 (single isomer, unassigned) [Compound A113, (R or S)-3-((4-amino-7-(2-methoxy-5-(2-(methylamino)ethoxy)benzyl)imidazo[2,1-f][1,2,4]triazin-2-yl)oxy)hexan-1-ol] | 7.01 | 7.62
CCCC(CCO)Oc1nc(N)c2ncc(Cc3cc(F)c(OCCNC)c(F)c3)n2n1 (single isomer, unassigned) [Compound A114, (R or S)-3-((4-amino-7-(3,5-difluoro-4-(2-(methylamino)ethoxy)benzyl)imidazo[2,1-f][1,2,4]triazin-2-yl)oxy)hexan-1-ol] | 8.17 | 9.00
CCCC(CCO)Oc1nc(N)c2ncc(Cc3ccc(OCCNC)cc3F)n2n1 (single isomer, unassigned) [Compound A115, (R or S)-3-((4-amino-7-(2-fluoro-4-(2-(methylamino)ethoxy)benzyl)imidazo[2,1-f][1,2,4]triazin-2-yl)oxy)hexan-1-ol] | 8.15 | 9.14
CCCC(CCO)Oc1nc(N)c2ncc(Cc3cc(OC)cc(OCCNC)c3)n2n1 (single isomer, unassigned) [Compound A116, (R or S)-3-((4-amino-7-(3-methoxy-5-(2-(methylamino)ethoxy)benzyl)imidazo[2,1-f][1,2,4]triazin-2-yl)oxy)hexan-1-ol] | 7.29 | 7.42
CCCC(CCO)Oc1nc(N)c2ncc(Cc3ccc(OC)c(OCCNC)c3)n2n1 (single isomer, unassigned) [Compound A117, (R or S)-3-((4-amino-7-(4-methoxy-3-(2-(methylamino)ethoxy)benzyl)imidazo[2,1-f][1,2,4]triazin-2-yl)oxy)hexan-1-ol] | 6.27 | 7.89
CCCC(CCO)Oc1nc(N)c2ncc(Cc3cccc(OCCNC)c3OC)n2n1 (single isomer, unassigned) [Compound A118, (R or S)-3-((4-amino-7-(2-methoxy-3-(2-(methylamino)ethoxy)benzyl)imidazo[2,1-f][1,2,4]triazin-2-yl)oxy)hexan-1-ol] | 7.68 | 7.96
CCCC(CCO)Oc1nc(N)c2ncc(Cc3ccc(CCNC)cc3)n2n1 (single isomer, unassigned) [Compound A119, (R or S)-3-((4-amino-7-(4-(2-(methylamino)ethyl)benzyl)imidazo[2,1-f][1,2,4]triazin-2-yl)oxy)hexan-1-ol] | 5.53 | 6.84
CCCC(CCO)Oc1nc(N)c2ncc(Cc3ccc(CCNC)cc3)n2n1 (single isomer, unassigned) [Compound A120, (S or R)-3-((4-amino-7-(4-(2-(methylamino)ethyl)benzyl)imidazo[2,1-f][1,2,4]triazin-2-yl)oxy)hexan-1-ol] | 7.23 | 8.41
